The results in this text go back to the OligoGym collection.

Where “and” joins values, the source holds several entries; their conditions need not be identical. Equal values may be shown once. After the bases stand the sugars from the 5' end (letter, count) and the backbone: PS all phosphorothioate, else s phosphorothioate and o phosphodiester by linkage. Methylation of C is not given here. k = constrained ethyl (cEt); d = 2'-deoxy (DNA)

The target of this data set is MALAT1. The note with it: ASO, A431, 0.005 µM.
Take CATTACAGTTCTTGAA (sugars k3 d10 k3, PS): the target mRNA inhibition amounted to 41%.

On to CATTACGCAACTGAGC (sugars k3 d10 k3, PS), for which the target mRNA inhibition is -1%. The result for CATTCAAGCTGAACTA (sugars k3 d10 k3, PS) reads 39%; that for CATTCCTTCGGATGCT (sugars k3 d10 k3, PS), 38%; that for CATTGCCTCTTCATTG (sugars k3 d10 k3, PS), 36%.

For the sequence CATTGGCACACAGCAC (sugars k3 d10 k3, PS), the target mRNA inhibition came out at 21%.

As to CATTGGGAGTTACTTG (sugars k3 d10 k3, PS), the target mRNA inhibition was 32%. CCAAAAGCCTTCTGCC (sugars k3 d10 k3, PS): the target mRNA inhibition is 34%. To CCAACCGTAACAGGCC (sugars k3 d10 k3, PS) belongs 27%. To CCAAGATTGCCCCAAC (sugars k3 d10 k3, PS) belongs 14%; to CCACCCTCTAAGAGAC (sugars k3 d10 k3, PS), -17%.

In the case of CCACTCTTGGAAAACG (sugars k3 d10 k3, PS), the target mRNA inhibition was determined as 23%. To CCACTTGATCCCAACT (sugars k3 d10 k3, PS) belongs 47%; to CCCACAGGAACAAGTC (sugars k3 d10 k3, PS), 14%; to CCCACGGCCCGCACGG (sugars k3 d10 k3, PS), 14%. To CCCATAACTGATCTGA (sugars k3 d10 k3, PS) belongs 42%. To CCCATTATATTAGAAA (sugars k3 d10 k3, PS) belongs 10%.

As to CCCCAAAAGCTCTATA (sugars k3 d10 k3, PS), the target mRNA inhibition turned out to be 8%.

On to CCCCAAGACCAAACTG (sugars k3 d10 k3, PS), for which the target mRNA inhibition was -9%.

As to CCCCAATGGAGGTATG (sugars k3 d10 k3, PS), the target mRNA inhibition amounted to 37%. To CCCCACGCCAACACAG (sugars k3 d10 k3, PS) belongs 10%; to CCCCAGTTCAATACTT (sugars k3 d10 k3, PS), 25%; to CCCCAGTTGCCGCCAG (sugars k3 d10 k3, PS), -18%. To CCCCATTATATTAGAA (sugars k3 d10 k3, PS) belongs -6%; to CCCCCAAGATTGCCCC (sugars k3 d10 k3, PS), 11%. The result for CCCCCCACGGCCCGCA (sugars k3 d10 k3, PS) reads 26%; that for CCCCGTCCTGGAAACC (sugars k3 d10 k3, PS), 21%. On to CCCGCACGGAAATTTT (sugars k3 d10 k3, PS), for which the target mRNA inhibition came to 17%. Consider CCCGGAACTTTTAAAA (sugars k3 d10 k3, PS), for which the target mRNA inhibition is -7%. The result for CCCTAACATGCAATAC (sugars k3 d10 k3, PS) reads 14%; that for CCCTCTAAGAGACATT (sugars k3 d10 k3, PS), 32%; that for CCCTTCAAGCACCGCT (sugars k3 d10 k3, PS), 28%. To CCCTTCTAGCTTCAAG (sugars k3 d10 k3, PS) belongs 38%; to CCCTTCTATTGGTATT (sugars k3 d10 k3, PS), 7%; to CCGCAGGGATTTGAAC (sugars k3 d10 k3, PS), 2%. As to CCGCTTGAGATTTGGG (sugars k3 d10 k3, PS), the target mRNA inhibition was determined as 28%. The result for CCGGAATTCGATCACC (sugars k3 d10 k3, PS) reads 9%; that for CCGGAGCAGGAAGAAA (sugars k3 d10 k3, PS), 23%. The result for CCGTCCTGGAAACCAG (sugars k3 d10 k3, PS) reads 16%. The result for CCTACAACACCCGGAA (sugars k3 d10 k3, PS) reads 0%. Turning to CCTACCGCACAGCTCG (sugars k3 d10 k3, PS), the target mRNA inhibition was found to be 3%. To CCTACTGAAGAGCATT (sugars k3 d10 k3, PS) belongs 25%; to CCTACTTTAAGCCTTC (sugars k3 d10 k3, PS), 35%; to CCTATCTTCTCCAGTC (sugars k3 d10 k3, PS), -13%. The result for CCTCAATCCACTTGAT (sugars k3 d10 k3, PS) reads -2%. Turning to CCTCACGGATTTTTAC (sugars k3 d10 k3, PS), the target mRNA inhibition was -1%. To CCTCAGTTACACATCC (sugars k3 d10 k3, PS) belongs 49%; to CCTCCTCCGTGTGGTT (sugars k3 d10 k3, PS), 32%; to CCTGATCTGGTCCATT (sugars k3 d10 k3, PS), 44%. Turning to CCTGCTACCTTCATCA (sugars k3 d10 k3, PS), the target mRNA inhibition was 22%.

For the sequence CCTTAGTTGGCATCAA (sugars k3 d10 k3, PS), the target mRNA inhibition was 82% and 63%. To CCTTCCGCCGCCTCTT (sugars k3 d10 k3, PS) belongs 3%; to CCTTCGGATGCTTCAC (sugars k3 d10 k3, PS), 58% and 78%; to CCTTCGGTTTAATCTC (sugars k3 d10 k3, PS), 61% and 58%. On to CCTTTATCACTCAGCT (sugars k3 d10 k3, PS), for which the target mRNA inhibition worked out at 54%.

Take CCTTTCATAGAGCCTT (sugars k3 d10 k3, PS): the target mRNA inhibition was 69% and 90%. The result for CCTTTGTGAGGGAGGC (sugars k3 d10 k3, PS) reads -5%. As to CGAGAAATCGGAGCAG (sugars k3 d10 k3, PS), the target mRNA inhibition turned out to be 22%.

In the case of CGCAGACAAAGTTTCT (sugars k3 d10 k3, PS), the target mRNA inhibition is 57%. To CGCAGGGATTTGAACC (sugars k3 d10 k3, PS) belongs 15%; to CGCCATGGAAAGCGAG (sugars k3 d10 k3, PS), 20%. Take CGCCGCCTCTTAAAGC (sugars k3 d10 k3, PS): the target mRNA inhibition came out at 13%. To CGCTAAGATGCTAGCT (sugars k3 d10 k3, PS) belongs -6%; to CGCTCCTTCCTGGAAT (sugars k3 d10 k3, PS), -19%.

With CGGACTTTCTCCCCCA (sugars k3 d10 k3, PS), the target mRNA inhibition is -9%. The result for CGGCCCCCCAGTTGCC (sugars k3 d10 k3, PS) reads 17%; that for CGGTTAAAAATAGGTT (sugars k3 d10 k3, PS), 6%. To CGTCCCCATATAAATC (sugars k3 d10 k3, PS) belongs 1%. CGTCCTGGAAACCAGG (sugars k3 d10 k3, PS): the target mRNA inhibition came to 21%. The result for CGTTAAAAACTTAACG (sugars k3 d10 k3, PS) reads 13%; that for CGTTACCTTGAAACCG (sugars k3 d10 k3, PS), 36%.
